Holding throughout (assay): NCI tumour cell line growth inhibition, 48 h
The subject of assay [1] is CCRF-CEM leukemia.
The test system of assay [2] is COLO 205 colon.
Assay [3] relates to LOX IMVI melanoma.
The subject of assay [4] is NCI/ADR-RES ovarian.
The subject of assay [5] is OVCAR-5 ovarian.
Assay [6] deals with SF-295 CNS.
The subject of assay [7] is SK-MEL-28 melanoma.
Assay [8] concerns SN12C renal.
The test system of assay [9] is SNB-19 CNS.
Assay [10] deals with 786-0 renal.
The test system of assay [11] is MDA-MB-435.

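These data come from cells grown in 96-well plates and exposed to compound for 48 hours at five concentrations. GI50 = concentration required for 50% inhibition of growth. TGI is the concentration that stops growth completely.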

As to `COC(=O)C(C/C=C(\C)c1ccc(Cl)cc1)C(C)=O` (stereo unspecified), the TGI is more than 100 µM in assay [1]; more than 100 µM in [2]; 28.1 µM in assay [3]; 63.1 µM in assay [4]; more than 90.3 µM in assay [5]; more than 100 µM in assay [6]. Further, the TGI in assay [7], in [8] and in assay [9] was more than 100 µM in each case.
For `COC(=O)C1=C(C(=O)OC)SC2(S1)C(C(=O)OC)=C(C(=O)OC)Sc1c2ssc1=Nc1ccc(Cl)cc1`, the TGI amounted to 1.69 µM in [10]; 2.04 µM in [2]; 1.16 µM in [3]; 2.14 µM in [11]; 2.81 µM in [5]; 5.34 µM in assay [6]. Also, the TGI in assay [7] came out at 3.66 µM; in assay [8] it was 1.8 µM; in [9], 2.95 µM.
In the case of `COc1ccc(C(=O)/C=C/c2ccc(OCCSCCCCCCCCCCSCCOc3ccc(/C=C/C(=O)c4ccc(OC)c(OC)c4)cc3)cc2)cc1OC`, the TGI in assay [10], in assay [1], in assay [2], in [3], in assay [11] and in assay [6] was more than 100 µM throughout. Moreover, the TGI in assay [7] and in assay [8] was more than 100 µM in each case.
Regarding `Cc1c2ccncc2c(C)c2c1[nH]c1ccc(OCC(F)(F)F)cc12`, the TGI is 2.9 µM in assay [10]; 4.9 µM in [1]; 3.18 µM in assay [2]; 3.09 µM in assay [3]; 2.86 µM in assay [5]; 3.01 µM in assay [6]. In addition, the TGI is 3.15 µM in assay [7], 2.78 µM in [8] and 3.03 µM in [9].
Take `COC1(O)c2cccc(Cl)c2C(=O)N1C1(C(N)=O)CCCCC1` (stereo unspecified): the TGI in assay [1], in [2], in [3], in [4], in [5] and in assay [6] was more than 100 µM throughout. Also, the TGI in [7], in assay [8] and in assay [9] was more than 100 µM throughout.
`CSc1nc2c(ncn2C2OCC(O)C(O)C2O)c(=O)n1C` (stereo unspecified): the TGI in assay [1], in [2], in [3], in assay [4], in assay [5] and in assay [6] was more than 100 µM each time. Also, the TGI in assay [7], in [8] and in assay [9] was more than 100 µM each time.
As to `CC1CCC2(CC1)NC1=C(CC(C)CC1)C1=C2CC(C)CC1` (stereo unspecified), the TGI in assay [10] is 39.1 µM; in [1] it was 43.6 µM; in [2], 49.8 µM; in assay [3], 34.9 µM; in assay [5], 57.9 µM; in assay [6], 36.9 µM. For the same compound, the TGI in [7] came out at 35 µM; in [9] it was 78.2 µM.
Take `NN1C(=O)C(CCO)S/C1=N/N=C1/SC(CCO)C(=O)N1N` (stereo unspecified): the TGI in assay [10], in assay [1], in assay [2], in assay [3], in assay [5] and in assay [6] was more than 100 µM throughout. Moreover, the TGI in [7], in assay [8] and in assay [9] was more than 100 µM in each case.
For `COP(=O)(OC)C(O)CC(C)C` (stereo unspecified), the TGI in assay [10], in assay [2], in [11], in [5], in assay [6] and in assay [7] was more than 100 µM throughout. Further, the TGI in [8] and in [9] was more than 100 µM throughout.
Consider `CN1CCN(Cc2ccc(NC(=O)c3cccc(C#Cc4cnc(N)c5ncccc45)c3F)cc2C(F)(F)F)CC1`, for which the GI50 in [1] was 1.01 µM; in [2], 1.17 µM; in [11] it was 0.789 µM; in assay [4], 1.6 µM; in assay [5], 0.722 µM; in [6], 7.06 µM. Further, the GI50 in assay [7] is 0.848 µM; in assay [8], 0.817 µM; in assay [9], 1.41 µM. Also, the TGI was 3.67 µM in [1]; 6.07 µM in assay [2]; 1.53 µM in assay [11]; 5.18 µM in assay [4]; 1.52 µM in assay [5]; 14.7 µM in assay [6]. Besides, the results for the TGI in assay [7], in assay [8] and in assay [9] were 1.59 µM, 1.59 µM and 3.72 µM, respectively.
In the case of `COc1cc(C2C(Cl)C(=O)N2NC(=O)c2ccc(N)cc2)cc(Br)c1O` (stereo unspecified), the TGI was 26 µM in [10]; 12.1 µM in [1]; 33.4 µM in assay [2]; 11 µM in [3]; 38.8 µM in assay [5]; 27.7 µM in [6]. Besides, the results for the TGI in assay [7], in assay [8] and in assay [9] were 31.6 µM, 33.4 µM and 24 µM, respectively.
In the case of `CC(C)(CCCCC(C)(C)[N+](C)(C)C)[N+](C)(C)C`, the TGI in assay [10], in [1], in assay [2], in assay [11], in [4] and in assay [5] was more than 100 µM throughout. The TGI in [7], in assay [8] and in [9] was more than 100 µM in each case.
With `COc1ccc(C(=O)C(c2ccc(OCc3ccccc3)cc2)c2ccc(OCc3ccccc3)cc2)cc1`, the TGI in assay [10], in [1], in assay [2], in [3], in [5] and in [6] was more than 100 µM each time. Besides, the TGI in assay [7], in assay [8] and in assay [9] was more than 100 µM throughout.
`OCCN1CCN2C=C(C3CCCC4N(CCO)CCN34)CCC21` (stereo unspecified): the TGI in assay [10] was more than 100 µM; in assay [1] it was 36.3 µM; in [2], more than 100 µM; in [3], more than 100 µM; in assay [5], more than 100 µM; in assay [6] it was more than 100 µM. Moreover, the TGI in [7], in assay [8] and in [9] was more than 100 µM throughout.
On to `Clc1ccc(-c2c(C3=NCCCN3)nnn2-c2ccccc2)cc1`, for which the TGI was more than 100 µM in assay [10]; more than 100 µM in assay [1]; more than 100 µM in [2]; 55.7 µM in [3]; more than 100 µM in [5]; more than 100 µM in assay [6]. The TGI in assay [7], in [8] and in assay [9] was more than 100 µM each time.
For `O=C(OCc1ccccc1)N(CCCCN(CCCNCc1ccccc1)C(=O)OCc1ccccc1)CCCNCc1ccccc1`, the TGI in [10] was 1.29 µM; in assay [2], 0.33 µM; in assay [11] it was 0.335 µM; in assay [4], 3.43 µM; in [5], 2.83 µM; in assay [6], more than 100 µM. Also, the TGI is 3.08 µM in assay [7], 0.886 µM in assay [8] and 1.11 µM in assay [9].
Turning to `Cc1cccc(-c2cc(=O)c3c(C)cc(C)nc3[nH]2)c1`, the TGI in assay [10] is more than 100 µM; in [1], more than 86.5 µM; in assay [2], 8.16 µM; in [3] it was more than 100 µM; in assay [4], 4.68 µM; in [5] it was more than 100 µM. Besides, the TGI in assay [6] is more than 63.8 µM; in assay [7] it was more than 100 µM; in assay [8], more than 100 µM; in assay [9] it was more than 100 µM.
As for `O=C(Nc1cccc2c1[nH]c1c(-c3ccccc3)nccc12)c1ccccc1[N+](=O)[O-]`, the TGI in assay [1] is more than 100 µM; in [2] it was more than 100 µM; in assay [3], more than 100 µM; in assay [5], 63.2 µM; in assay [6], 88 µM; in [7], more than 100 µM. Also, the TGI in assay [8] and in [9] was more than 100 µM in each case.
For the compound `CC1C(OC2O[C@@H]3O[C@@]4(C)CC[C@H]5[C@H](C)CC[C@@H](C2C)[C@@]35O4)O[C@@H]2O[C@@]3(C)CC[C@H]4[C@H](C)CC[C@@H]1[C@@]24O3` (stereo partly specified), the TGI in [10], in assay [1], in assay [2], in [3], in [11] and in [5] was more than 50 µM each time. Moreover, the TGI in assay [6], in assay [7], in assay [8] and in assay [9] was more than 50 µM throughout.
Turning to `O=C(O)c1ccc(C2SCc3nc4ccccc4n32)cc1` (stereo unspecified), the TGI in assay [10], in [1], in assay [5], in assay [6], in [7] and in [8] was more than 100 µM throughout. Also, the TGI in assay [9] is more than 100 µM.
In the case of `Ic1cc2c(cc1C1SCCCS1)OCO2`, the TGI in [10], in assay [1], in assay [2], in assay [3], in assay [5] and in [6] was more than 100 µM in each case. Also, the TGI in assay [7], in assay [8] and in assay [9] was more than 100 µM each time.
On to `C=CCOC(=O)C1=C(CCC[C@@H](C)O[Si](C)(C)C(C)(C)C)N=C(N)N2[C@H](CCO)CC[C@@H]12`, for which the TGI came to 33.8 µM in assay [10]; 22.9 µM in assay [2]; 27.8 µM in [11]; 35 µM in [4]; 25.2 µM in assay [6]; 31.3 µM in assay [7]. In addition, the TGI in [8] is 31.7 µM; in [9], 29 µM.
For `COc1cc2c(cc1OC)C(=O)/C(=C/c1cc(OC)c(OC)c(OC)c1)C2`, the TGI in assay [1], in [2], in assay [11], in assay [4], in [5] and in assay [6] was more than 100 µM throughout. The TGI in [7], in assay [8] and in assay [9] was more than 100 µM in each case.
In the case of `C=C[C@]1(C)CCC2=C(CCC3C2(C)CCC[C@@]3(C)COC(C)=O)C1` (stereo partly specified), the TGI in assay [10] was 31.8 µM; in assay [1], 35.4 µM; in assay [2] it was 30 µM; in assay [3] it was 33.8 µM; in assay [5], 32.8 µM; in assay [6], 32.5 µM. In addition, the TGI was 60.4 µM in assay [7], 31.4 µM in [8] and 31.9 µM in assay [9].
For the compound `O=C(O)C12CCCCC1CCCC2` (stereo unspecified), the TGI in [1], in assay [2], in [3], in assay [5], in [6] and in assay [7] was more than 100 µM throughout. Also, the TGI in assay [8] and in [9] was more than 100 µM in each case.
With `COc1ccc(C2C3CCc4ccccc4C3=NN2S(=O)(=O)c2ccc(/C=C/C(=O)O)cc2)cc1` (stereo unspecified), the TGI in assay [10] is 15.9 µM; in assay [1], 22.9 µM; in assay [2] it was 7.43 µM; in assay [3] it was 24.5 µM; in [11], 2.69 µM; in [5] it was more than 100 µM. In addition, the figures for the TGI in assay [6], in assay [8] and in assay [9] were 9.08 µM, more than 100 µM and more than 100 µM, respectively.
For `O=C1CSC(c2c[nH]c3ccccc23)N1c1ccccc1[N+](=O)[O-]` (stereo unspecified), the TGI in [10], in [1], in assay [2], in [3], in assay [11] and in assay [5] was more than 100 µM each time. For the same compound, the TGI in assay [6], in assay [7], in assay [8] and in assay [9] was more than 100 µM each time.
With `CCCCCC/C=C1\CCC(CN2CCOCC2)C1=O` (stereo unspecified), the TGI is 8.75 µM in assay [10]; more than 25.4 µM in [1]; 32.3 µM in [2]; 25.1 µM in [3]; 37.4 µM in assay [5]; 39.3 µM in assay [6]. Besides, the TGI in assay [7] was 30.7 µM; in assay [8], 33.4 µM; in [9], 38.9 µM.

These data come from PubChem BioAssay (NCI).
